This passage reports EC50 and CC50 results from patent US12030904B2 (priority 2020, dated 2024).

The EC50 is the concentration needed to bring the measured effect to its halfway point. By CC50 is commonly meant the concentration at which the toxic effect on the cells reaches its halfway point. Low values mean harm at low concentration, high ones better tolerance by the cells.

The subject of series [1] is Recombinant Respiratory Syncytial virus strain A2 containing the firefly luciferase reporter (RSV-Fluc). Put plainly: microbe, parasite or virus in culture. It counts as cell-based. Conditions: human respiratory syncytial virus, NHBE.
A short description of another series: MT4 cytotoxicity (CC50). Conditions: human, MT4 cells.
Series [2] in a line: A549 cytotoxicity analysis (CellTiter-Glo). Type of series: cell-based. Conditions: human, A549 cells. The protocol:
The cytotoxicity of compounds was determined in A549 cells in the following manner. Compounds (40 nL) were spotted onto 384-well Grenier plates prior to seeding 5000 A549 cells/well in a volume of 40 μL culture medium. The plates were incubated at 37° C. for 48 hours with 5% CO2. On day 2, 40 μL of CellTiter-Glo (Promega) was added and mixed 5 times. Plates were read for luminescence on an Envision (PerkinElmer) and the CC50 (compound concentration for reducing 50% of luminescence signal as a measure of cell viability) were calculated using a nonlinear regression model (four parameters). Two experiments were performed with technical duplicates.
(In general: In ATP-based viability assays light output follows the ATP content of the culture.)

The next series deals with SARS-CoV-2. As to the kind of experiment: microbe, parasite or virus in culture. It counts as cell-based.
Where [3] appears, read: 72 h, read-out: RSV-Fluc EC50 (NHBE), NHBE cells, three days, Table 1.
[4] abbreviates: Severe acute respiratory syndrome coronavirus 2, 48 h, read-out: SARS-CoV-2 EC50.
Setting [5] is: 72 h, read-out: RSV-Fluc EC50 (NHBE), NHBE cells, three days, Table 2.
[6] abbreviates: Severe acute respiratory syndrome coronavirus 2, read-out: SARS EC50.

Where two headings read alike, the source gives them in different places. Bounds are passed on as bounds.

With `CCCCCCCCCCCCCCCCCCOC[C@H](COP(=O)(O)OC[C@H]1O[C@@](C#N)(c2ccc3c(N)ncnn23)[C@H](O)[C@@H]1O)OCc1ccc(F)c(F)c1` [Example 14, ((2R,3S,4R,5R)-5-(4-aminopyrrolo[2,1-f][1,2,4]triazin-7-yl)-5-cyano-3,4-dihydroxytetrahydrofuran-2-yl)methyl ((R)-2-((3,4-difluorobenzyl)oxy)-3-(octadecyloxy)propyl) hydrogen phosphate], the EC50 in series [1] (setting [3]) came out at 90 nM; with SARS-CoV-2 (setting [4]), 320 nM. The cytotoxic concentration (CC50) in the series “MT4 cytotoxicity (CC50)” (MT4 CC50, Table 1a) stood at 7190 nM. Further, in series [2] (48 hours, Table 1), it took 13000 nM to reach half-maximal cytotoxicity (CC50 at 48 h).
On to `CCCCCCCCCCCCCCCCCCOC[C@H](COP(=O)(O)OC[C@H]1O[C@@](C#N)(c2ccc3c(N)ncnn23)[C@H](O)[C@@H]1OC(=O)C(C)C)OCc1ccccc1` [Example 12, (2R,3S,4R,5R)-5-(4-aminopyrrolo[2,1-f][1,2,4]triazin-7-yl)-2-(((((R)-2-(benzyloxy)-3-(octadecyloxy)propoxy)(hydroxy)phosphoryl)oxy)methyl)-5-cyano-4-hydroxytetrahydrofuran-3-yl isobutyrate], for which the half-maximal effective concentration (EC50) in series [1] (setting [3]) amounted to 260 nM; in the series on SARS-CoV-2 (setting [4]), 3200 nM. Besides, in the series “MT4 cytotoxicity (CC50)” (MT4 CC50, Table 1a), half-maximal cytotoxicity (CC50) was put at 50000 nM. In series [2] (48 hours, Table 1), this compound returned a CC50 at 48 h of 50000 nM.
Take `CCCCCCCCCCCCCCCCCCCCOC[C@H](COP(=O)(O)OC[C@H]1O[C@@](C#N)(c2ccc3c(N)ncnn23)[C@H](O)[C@@H]1O)OCc1ccccc1` [Example 8, ((2R,3S,4R,5R)-5-(4-aminopyrrolo[2,1-f][1,2,4]triazin-7-yl)-5-cyano-3,4-dihydroxytetrahydrofuran-2-yl)methyl ((R)-2-(benzyloxy)-3-(icosyloxy)propyl) hydrogen phosphate]: the EC50 in series [1] (setting [3]) was 110 nM; in the series on SARS-CoV-2 (setting [4]) it was 800 nM. This compound also registered a CC50 in the series “MT4 cytotoxicity (CC50)” (MT4 CC50, Table 1a) of 33400 nM. It took 23000 nM to reach half-maximal cytotoxicity in series [2] (48 hours, Table 1) (CC50 at 48 h).
Turning to `CCCCCCCCCCCCCCCCCCOC[C@H](COP(=O)(O)OC[C@H]1O[C@@](C#N)(c2ccc3c(N)ncnn23)[C@H](O)[C@@H]1O)OCc1cc(F)cc(F)c1` [Example 15, [(2R,3S,4R,5R)-5-(4-aminopyrrolo[2,1-f][1,2,4]triazin-7-yl)-5-cyano-3,4-dihydroxy-tetrahydrofuran-2-yl]methyl [(2R)-2-[(3,5-difluorophenyl)methoxy]-3-octadecoxy-propyl] hydrogen phosphate], the EC50 in series [1] (setting [3]) came to 80 nM; with SARS-CoV-2 (setting [4]), 260 nM. In addition, the midpoint of cytotoxicity in “MT4 cytotoxicity (CC50)” (MT4 CC50, Table 1a), the CC50, lay at 3310 nM. This compound yielded a CC50 at 48 h in series [2] (48 hours, Table 1) of 13000 nM.
`CCCCCCCCCCCCCCCCCCOC[C@H](COP(=O)(O)OC[C@H]1O[C@@](C#N)(c2ccc3c(N)ncnn23)[C@H](O)[C@@H]1O)OCc1ccc(C(F)(F)F)cc1` [Example 11, ((2R,3S,4R,5R)-5-(4-aminopyrrolo[2,1-f][1,2,4]triazin-7-yl)-5-cyano-3,4-dihydroxytetrahydrofuran-2-yl)methyl ((R)-3-(octadecyloxy)-2-((4-(trifluoromethyl)benzyl)oxy)propyl) hydrogen phosphate]: the EC50 in series [1] (setting [3]) amounted to 60 nM; in the series on SARS-CoV-2 (setting [4]), 350 nM. In “MT4 cytotoxicity (CC50)” (MT4 CC50, Table 1a), it took 14500 nM to reach half-maximal cytotoxicity (CC50). This compound also returned a CC50 at 48 h in series [2] (48 hours, Table 1) greater than 50000 nM.
Regarding `CCCCCCCCCCCCCCCCCCOC[C@H](COP(=O)(O)OC[C@H]1O[C@@](C#N)(c2ccc3c(N)ncnn23)[C@H](O)[C@@H]1O)OCc1ccccc1` [Example 1, ((2R,3S,4R,5R)-5-(4-aminopyrrolo[2,1-f][1,2,4]triazin-7-yl)-5-cyano-3,4-dihydroxytetrahydrofuran-2-yl)methyl ((R)-2-(benzyloxy)-3-(octadecyloxy)propyl) hydrogen phosphate], the results for the EC50 (in series [1] (setting [3]); in the series with SARS-CoV-2 (setting [4])) were 90 nM and 940 nM, respectively. Further, it took 3960 nM to reach half-maximal cytotoxicity in the series “MT4 cytotoxicity (CC50)” (MT4 CC50, Table 1a) (CC50). Also, in series [2] (48 hours, Table 1), the CC50 at 48 h is 20000 nM.
Regarding `CCCCCCCCCCCCCCCCCCOC[C@H](COP(=O)(O)OC[C@H]1O[C@@](C#N)(c2ccc3c(N)ncnn23)[C@H](O)[C@@H]1O)OCC1CCCCC1` [Example 3, ((2R,3S,4R,5R)-5-(4-aminopyrrolo[2,1-f][1,2,4]triazin-7-yl)-5-cyano-3,4-dihydroxytetrahydrofuran-2-yl)methyl ((R)-2-(cyclohexylmethoxy)-3-(octadecyloxy)propyl) hydrogen phosphate], the EC50 in series [1] (setting [3]) was found to be 120 nM; in the series on SARS-CoV-2 (setting [4]) it was 340 nM. This compound also showed a CC50 in the series “MT4 cytotoxicity (CC50)” (MT4 CC50, Table 1a) of 14000 nM. For the same compound, the CC50 at 48 h in series [2] (48 hours, Table 1) came to 19000 nM.
Consider `CCCCCCCCCCCCCCCCCCOC[C@H](COP(=O)(O)OC[C@H]1O[C@@](C#N)(c2ccc3c(N)ncnn23)[C@H](O)[C@@H]1O)OCc1ccc2ccccc2c1` [Example 4, ((2R,3S,4R,5R)-5-(4-aminopyrrolo[2,1-f][1,2,4]triazin-7-yl)-5-cyano-3,4-dihydroxytetrahydrofuran-2-yl)methyl ((R)-2-(naphthalen-2-ylmethoxy)-3-(octadecyloxy)propyl) hydrogen phosphate], for which the EC50 is 60 nM in series [1] (setting [3]) and 340 nM with SARS-CoV-2 (setting [4]). For the same compound, in the series “MT4 cytotoxicity (CC50)” (MT4 CC50, Table 1a), the CC50 is 4170 nM. The CC50 at 48 h in series [2] (48 hours, Table 1) came out at 17000 nM.
The matching figures for `CCCCCCCCCCCCCCCCCCCOC[C@H](COP(=O)(O)OC[C@H]1O[C@@](C#N)(c2ccc3c(N)ncnn23)[C@H](O)[C@@H]1O)OCc1ccccc1` [Example 7, ((2R,3S,4R,5R)-5-(4-aminopyrrolo[2,1-f][1,2,4]triazin-7-yl)-5-cyano-3,4-dihydroxytetrahydrofuran-2-yl)methyl ((R)-2-(benzyloxy)-3-(nonadecyloxy)propyl) hydrogen phosphate]: 80 nM, 370 nM, 13900 nM and greater than 50000 nM.
Regarding `CCCCCCCC/C=C\CCCCCCCCOC[C@H](COP(=O)(O)OC[C@H]1O[C@@](C#N)(c2ccc3c(N)ncnn23)[C@H](O)[C@@H]1O)OCc1cc(F)cc(C#N)c1` [Example 69, ((2R,3S,4R,5R)-5-(4-aminopyrrolo[2,1-f][1,2,4]triazin-7-yl)-5-cyano-3,4-dihydroxytetrahydrofuran-2-yl)methyl ((R)-2-((3-cyano-5-fluorobenzyl)oxy)-3-(((Z)-octadec-9-en-1-yl)oxy)propyl) hydrogen phosphate], the EC50 came to 24 nM in series [1] (setting [5]); 23 nM in series [1] (read-out: RSV EC50, Table 2a); 150 nM with SARS-CoV-2 (Severe acute respiratory syndrome coronavirus 2, Table 3, read-out: SARS-CoV-2 EC50); 150 nM with SARS-CoV-2 (setting [6]). The compound further registered a CC50 in the series “MT4 cytotoxicity (CC50)” (MT4 CC50, Table 2a) of 730 nM. The compound also had a CC50 at 48 h in series [2] (Table 3) of 860 nM.
Regarding `CCCCCCCCCCCCCCCCCCOC[C@H](COP(=O)(O)OC[C@H]1O[C@@](C#N)(c2ccc3c(N)ncnn23)[C@H](OC(=O)C(C)C)[C@@H]1OC(=O)C(C)C)OCc1ccccc1` [Example 13, (2R,3R,4R,5R)-2-(4-aminopyrrolo[2,1-f][1,2,4]triazin-7-yl)-5-(((((R)-2-(benzyloxy)-3-(octadecyloxy)propoxy)(hydroxy)phosphoryl)oxy)methyl)-2-cyanotetrahydrofuran-3,4-diyl bis(2-methylpropanoate)], the EC50 in series [1] (setting [3]) was 2200 nM; in the series with SARS-CoV-2 (setting [4]) it was greater than 10000 nM. Further, in “MT4 cytotoxicity (CC50)” (MT4 CC50, Table 1a), the CC50 amounted to 32800 nM. This compound also registered a CC50 at 48 h in series [2] (48 hours, Table 1) of 15000 nM.
For the compound `CCCCCCCCCCCCCCCCCCOC[C@H](COP(=O)(O)OC[C@H]1O[C@@](C#N)(c2ccc3c(N)ncnn23)[C@H](O)[C@@H]1O)OCc1ccc(-c2ccccc2)cc1` [Example 2, (R)-2-([1,1′-biphenyl]-4-ylmethoxy)-3-(octadecyloxy)propyl (((2R,3S,4R,5R)-5-(4-aminopyrrolo[2,1-f][1,2,4]triazin-7-yl)-5-cyano-3,4-dihydroxytetrahydrofuran-2-yl)methyl) hydrogen phosphate], the EC50 in series [1] (setting [3]) came to 350 nM; with SARS-CoV-2 (setting [4]), 430 nM. For the same compound, the CC50 in “MT4 cytotoxicity (CC50)” (MT4 CC50, Table 1a) was determined as 14700 nM. Moreover, the CC50 at 48 h in series [2] (48 hours, Table 1) was greater than 50000 nM.
As for `CCCCCCCCCCCCCCCCCCOC[C@H](COP(=O)(O)OC[C@H]1O[C@@](C#N)(c2ccc3c(N)ncnn23)[C@H](O)[C@@H]1O)OCc1cc(F)cc(C#N)c1` [Example 16, [(2R,3S,4R,5R)-5-(4-aminopyrrolo[2,1-f][1,2,4]triazin-7-yl)-5-cyano-3,4-dihydroxy-tetrahydrofuran-2-yl]methyl [(2R)-2-[(3-cyano-5-fluoro-phenyl)methoxy]-3-octadecoxy-propyl] hydrogen phosphate], the EC50 in series [1] (setting [3]) was determined as 60 nM; with SARS-CoV-2 (setting [4]), 220 nM. The compound further had a CC50 in “MT4 cytotoxicity (CC50)” (MT4 CC50, Table 1a) of 433 nM. Also, it took 18000 nM to reach half-maximal cytotoxicity in series [2] (48 hours, Table 1) (CC50 at 48 h).
On to `CCCCCCCCCCCCCCCCCCOC[C@H](COP(=O)(O)OC[C@H]1O[C@@](C#N)(c2ccc3c(N)ncnn23)[C@H](O)[C@@H]1O)Oc1ccc(C#N)c(OC(C)C)c1` [Example 72, ((2R,3S,4R,5R)-5-(4-aminopyrrolo[2,1-f][1,2,4]triazin-7-yl)-5-cyano-3,4-dihydroxytetrahydrofuran-2-yl)methyl ((R)-2-(4-cyano-3-isopropoxyphenoxy)-3-(octadecyloxy)propyl) hydrogen phosphate], for which the EC50 in series [1] (setting [5]) worked out at 8 nM; in series [1] (read-out: RSV EC50, Table 2a), 17 nM; with SARS-CoV-2 (setting [6]), 8350 nM. For the same compound, the CC50 in “MT4 cytotoxicity (CC50)” (MT4 CC50, Table 2a) stood at 279 nM. This compound displayed a CC50 at 48 h in series [2] (Table 3) of 240 nM.
